We go through three compounds from patent US20230160909A1, “NOVEL ION CONDUCTING CHANNEL FUSION SUBUNITS AND METHODS OF USE THEREOF” (UNIVERSITE DE BORDEAUX, priority 2020, published 2023).

One may read the EC50 as the concentration that produces a half-maximal response.

Common to all, as to assay type: cell-based
The target of one assay is T1, hP2X7 (Homo sapiens, UniProt Q99572).
T1 construct: expressed in transfected cells; host or cells: HEK293T
T1 sequence (Q99572 1-595): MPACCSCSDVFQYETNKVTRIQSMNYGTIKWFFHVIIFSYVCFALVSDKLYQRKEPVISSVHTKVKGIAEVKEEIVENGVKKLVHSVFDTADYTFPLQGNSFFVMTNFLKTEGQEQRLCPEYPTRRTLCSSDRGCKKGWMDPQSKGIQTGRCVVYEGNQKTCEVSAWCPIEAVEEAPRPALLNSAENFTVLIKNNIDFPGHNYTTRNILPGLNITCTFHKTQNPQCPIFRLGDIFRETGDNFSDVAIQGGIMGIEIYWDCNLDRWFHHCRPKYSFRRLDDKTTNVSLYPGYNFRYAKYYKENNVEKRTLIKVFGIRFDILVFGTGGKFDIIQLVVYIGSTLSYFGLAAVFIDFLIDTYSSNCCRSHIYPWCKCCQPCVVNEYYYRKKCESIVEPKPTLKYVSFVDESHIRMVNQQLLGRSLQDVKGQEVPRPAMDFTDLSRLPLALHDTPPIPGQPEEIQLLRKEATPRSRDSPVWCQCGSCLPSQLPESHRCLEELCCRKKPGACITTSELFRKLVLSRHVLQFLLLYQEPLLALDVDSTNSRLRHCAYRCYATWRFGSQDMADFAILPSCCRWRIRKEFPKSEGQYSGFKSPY
In words: hP2X7-NeonGreen-Calflux-nLuc BRET probe in HEK293T cells. The settings on record: read-out: EC50 of activation of hP2X7 probe. The source says:
(§1) Values were normalized to the maximal efficacy measured individually for each probe and represent the mean of three independent experiments.
(§2) We constructed human and murine P2X-NeonGreen-Calflux-nLuc probes wherein the DNA sequence encoding the seven human or mouse P2X subunits are individually fused in C-terminal to the calflux calcium sensor sandwiched in between the nanoluciferase and mNeonGreen (FIG. 11 left panel).

In a further assay the target is T2, GABARho1 (GABA receptor) (Homo sapiens, UniProt P24046).
T2 construct: expressed in transfected cells; host or cells: HEK cells are stated only for the free probe
T2 sequence (P24046 22-479): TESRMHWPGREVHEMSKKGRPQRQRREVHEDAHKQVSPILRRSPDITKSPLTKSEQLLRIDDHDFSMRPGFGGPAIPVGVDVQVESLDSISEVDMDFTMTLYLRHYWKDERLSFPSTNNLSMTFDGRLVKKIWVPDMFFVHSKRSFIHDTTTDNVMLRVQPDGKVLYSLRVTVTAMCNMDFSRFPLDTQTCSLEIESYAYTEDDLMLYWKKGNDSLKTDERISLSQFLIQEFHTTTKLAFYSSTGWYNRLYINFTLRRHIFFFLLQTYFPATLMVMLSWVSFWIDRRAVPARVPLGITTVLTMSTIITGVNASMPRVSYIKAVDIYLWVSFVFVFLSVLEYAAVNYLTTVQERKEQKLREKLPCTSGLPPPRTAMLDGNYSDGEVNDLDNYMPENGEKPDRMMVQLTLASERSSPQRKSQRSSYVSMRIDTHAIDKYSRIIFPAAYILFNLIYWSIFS
In words: YPetCI BRET sensor inserted in GABARho1 subunit. The settings on record: with or without untagged GABARho1 subunit, FIG. 13G. The source says: FIG. 13: Biosensors allowing to track Cys-loop receptor family activity. Insertion of NG-CF-NL or NL-CF-YFP probes in the second intracellular loop of cationic receptors (A) allows to track activity of nicotinic (B) or serotonin receptors (C). A BRET probe called YPetCI was also developed to sense intracellular anionic flux (D and F). When inserted in the second intracellular loop of GABARho1 subunit this probe allows to track activity of the GABA receptor (G).
We also developed a BRET probe allowing to sense anionic flux by fusing the cDNA of a chloride sensitive variant of YFP (YFP Chlore or YPetCI) to the cDNA of nLuc (FIG. 13D). When expressed in HEK cells this probe is able to detect the anionic influx generated by VRAC channel opening following a hypotonic challenge (FIG. 13F). Based on this probe, we generated a biosensor allowing to measure the activity of the anionic GABA receptors. We inserted the cDNA of the YPetCI sensor in the second intracellular loop of the GABARho1 subunit (FIG. 13E).
For orientation: Bioluminescence resonance energy transfer reports proximity on the nanometre scale.

The target in a further assay is T3, mP2X4 (Mus musculus, UniProt Q9JJX6).
T3 construct: expressed in transfected cells; host or cells: HEK293T
T3 sequence (Q9JJX6 1-388): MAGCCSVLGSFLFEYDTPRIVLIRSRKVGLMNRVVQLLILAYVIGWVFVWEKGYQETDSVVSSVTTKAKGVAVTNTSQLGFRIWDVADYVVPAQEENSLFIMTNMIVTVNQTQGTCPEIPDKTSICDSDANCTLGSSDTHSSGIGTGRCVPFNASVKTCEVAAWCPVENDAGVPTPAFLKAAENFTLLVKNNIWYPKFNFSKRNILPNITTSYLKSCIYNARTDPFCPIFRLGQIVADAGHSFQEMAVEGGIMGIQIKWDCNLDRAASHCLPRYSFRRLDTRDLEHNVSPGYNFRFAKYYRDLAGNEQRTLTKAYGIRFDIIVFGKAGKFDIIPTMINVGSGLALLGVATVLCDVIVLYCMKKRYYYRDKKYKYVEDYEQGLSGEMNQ
In words: mP2X4-NeonGreen-Calflux-nLuc BRET probe in HEK293T cells. The settings on record: FIG. 11.
Source text: as §1, §2

For a further assay, the target named is T4, hP2X2 (Homo sapiens, UniProt Q9UBL9).
T4 construct: expressed in transfected cells; host or cells: HEK293T
T4 sequence (Q9UBL9 1-471): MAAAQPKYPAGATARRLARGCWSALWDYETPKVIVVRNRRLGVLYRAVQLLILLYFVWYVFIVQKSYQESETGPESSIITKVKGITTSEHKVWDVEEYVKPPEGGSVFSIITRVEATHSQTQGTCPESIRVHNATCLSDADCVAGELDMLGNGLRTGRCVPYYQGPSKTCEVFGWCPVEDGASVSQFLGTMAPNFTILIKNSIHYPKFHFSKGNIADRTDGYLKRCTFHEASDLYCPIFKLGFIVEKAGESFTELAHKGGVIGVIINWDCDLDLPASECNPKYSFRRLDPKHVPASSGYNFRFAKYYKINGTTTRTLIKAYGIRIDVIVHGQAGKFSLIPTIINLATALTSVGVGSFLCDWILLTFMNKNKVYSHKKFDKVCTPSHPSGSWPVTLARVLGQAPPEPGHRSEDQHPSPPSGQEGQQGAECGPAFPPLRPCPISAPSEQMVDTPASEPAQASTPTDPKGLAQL
Put plainly: hP2X2-NeonGreen-Calflux-nLuc BRET probe in HEK293T cells. The settings on record: read-out: EC50 of activation of hP2X2 probe.
Source text: as §1, §2

A further assay addresses T5, P2X2 (Rattus norvegicus, UniProt P49653).
T5 construct: expressed in transfected cells; host or cells: HEK293T
T5 sequence (P49653 1-472): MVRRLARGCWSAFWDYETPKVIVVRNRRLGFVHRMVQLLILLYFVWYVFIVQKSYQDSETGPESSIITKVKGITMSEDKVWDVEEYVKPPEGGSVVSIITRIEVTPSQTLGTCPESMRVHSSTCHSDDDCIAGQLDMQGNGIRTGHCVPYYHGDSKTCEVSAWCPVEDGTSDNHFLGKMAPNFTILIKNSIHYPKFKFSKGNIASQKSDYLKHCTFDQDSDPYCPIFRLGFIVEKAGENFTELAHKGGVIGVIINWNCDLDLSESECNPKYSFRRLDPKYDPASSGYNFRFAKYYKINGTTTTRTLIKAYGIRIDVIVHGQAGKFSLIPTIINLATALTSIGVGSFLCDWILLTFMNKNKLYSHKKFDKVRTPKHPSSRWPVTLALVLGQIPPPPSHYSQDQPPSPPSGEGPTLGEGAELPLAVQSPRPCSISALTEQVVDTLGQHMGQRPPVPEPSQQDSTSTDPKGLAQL
Put plainly: rP2X2-nLuc-Calflux-YFP BRET probe in HEK293T cells. The settings on record: read-out: EC50 of activation of P2X2-NLuc-CalFlux-YFP probe.

The target of a further assay is T6, TRPV1 ion channel (Homo sapiens, UniProt Q8NER1).
T6 construct: expressed in transfected cells; host or cells: HEK293T
T6 sequence (Q8NER1 whole entry): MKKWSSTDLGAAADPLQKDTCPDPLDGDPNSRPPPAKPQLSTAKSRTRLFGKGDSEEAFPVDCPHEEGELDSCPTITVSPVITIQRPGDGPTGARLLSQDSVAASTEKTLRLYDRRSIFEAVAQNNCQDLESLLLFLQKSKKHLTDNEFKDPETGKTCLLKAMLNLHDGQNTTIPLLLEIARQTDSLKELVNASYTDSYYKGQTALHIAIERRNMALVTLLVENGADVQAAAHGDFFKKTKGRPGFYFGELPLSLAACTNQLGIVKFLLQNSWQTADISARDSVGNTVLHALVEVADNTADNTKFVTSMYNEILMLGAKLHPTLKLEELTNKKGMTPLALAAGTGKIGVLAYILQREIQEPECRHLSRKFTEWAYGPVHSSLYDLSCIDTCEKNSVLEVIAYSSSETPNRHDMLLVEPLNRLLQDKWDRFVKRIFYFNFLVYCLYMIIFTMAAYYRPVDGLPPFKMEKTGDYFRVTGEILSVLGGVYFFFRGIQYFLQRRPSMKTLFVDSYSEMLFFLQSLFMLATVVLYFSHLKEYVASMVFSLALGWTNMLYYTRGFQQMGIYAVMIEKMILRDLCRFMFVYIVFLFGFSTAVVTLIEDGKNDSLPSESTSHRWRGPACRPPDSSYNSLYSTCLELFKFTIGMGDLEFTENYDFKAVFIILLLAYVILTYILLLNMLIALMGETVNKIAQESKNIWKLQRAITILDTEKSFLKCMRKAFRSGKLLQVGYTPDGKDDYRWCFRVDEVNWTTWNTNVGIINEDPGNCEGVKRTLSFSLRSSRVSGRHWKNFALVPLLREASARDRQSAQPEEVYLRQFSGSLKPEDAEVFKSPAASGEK
Put plainly: mNeonGreen-Calflux-nLuc-hTRPV1 BRET biosensor in HEK293T cells. The settings on record: kinetic measurement, FIG. 8A.

For a further assay, the target named is T7, TRPV1 channel (Homo sapiens, UniProt Q8NER1).
T7 construct: expressed in transfected cells; host or cells: HEK293T
T7 sequence (Q8NER1 whole entry): as above
Put plainly: hTRPV1-nLuc-Calflux-YFP (or mNeonGreen) BRET probe in HEK293T cells. The settings on record: TRPV1-nLuc-Calflux-YFP/mNeonGreen probe.

A further assay addresses T8, hP2X5 (Homo sapiens, UniProt Q93086).
T8 construct: expressed in transfected cells; host or cells: HEK293T
In words: hP2X5-NeonGreen-Calflux-nLuc BRET probe in HEK293T cells. The settings on record: read-out: EC50 of activation of hP2X5 probe.
Source text: as §1, §2

For the next assay, the target named is T9, hP2X4 (Homo sapiens, UniProt Q99571).
T9 construct: expressed in transfected cells; host or cells: HEK293T
T9 sequence (Q99571 1-388): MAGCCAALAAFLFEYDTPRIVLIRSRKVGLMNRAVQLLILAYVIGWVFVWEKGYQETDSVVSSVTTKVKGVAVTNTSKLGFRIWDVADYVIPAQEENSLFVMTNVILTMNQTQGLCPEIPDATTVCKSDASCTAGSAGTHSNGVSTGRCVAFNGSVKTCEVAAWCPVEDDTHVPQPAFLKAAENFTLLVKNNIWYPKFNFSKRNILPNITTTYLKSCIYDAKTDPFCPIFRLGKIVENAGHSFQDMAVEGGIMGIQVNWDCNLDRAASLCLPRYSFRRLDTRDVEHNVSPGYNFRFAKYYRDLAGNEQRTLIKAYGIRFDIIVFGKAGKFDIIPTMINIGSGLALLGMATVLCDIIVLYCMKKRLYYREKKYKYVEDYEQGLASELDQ
In words: hP2X4-NeonGreen-Calflux-nLuc BRET probe in HEK293T cells. The settings on record: read-out: EC50 of activation of hP2X4 probe.
Source text: as §1, §2

T8 sequence (Q93086 whole entry): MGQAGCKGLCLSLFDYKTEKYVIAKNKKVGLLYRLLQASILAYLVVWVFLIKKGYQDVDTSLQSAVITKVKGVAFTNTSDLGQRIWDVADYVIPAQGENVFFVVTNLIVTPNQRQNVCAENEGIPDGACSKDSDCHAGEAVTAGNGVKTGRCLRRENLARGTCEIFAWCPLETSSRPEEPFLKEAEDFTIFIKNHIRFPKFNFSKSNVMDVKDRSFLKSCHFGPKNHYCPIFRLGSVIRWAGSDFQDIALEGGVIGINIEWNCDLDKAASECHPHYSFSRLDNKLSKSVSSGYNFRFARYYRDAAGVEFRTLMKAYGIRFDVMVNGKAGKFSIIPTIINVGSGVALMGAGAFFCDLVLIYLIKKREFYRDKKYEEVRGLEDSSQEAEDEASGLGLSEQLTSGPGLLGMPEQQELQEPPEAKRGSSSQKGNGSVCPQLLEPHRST

Consider BzATP, for which the EC50 at hP2X7 was 49000 nM.

For `NCCCC(=O)O` [GABA, γ-aminobutyric acid], on GABARho1 (GABA receptor), the “modulation of BRET signal” value is listed as “modulated”.

As for `Nc1ncnc2c1ncn2[C@@H]1O[C@H](COP(=O)(O)OP(=O)(O)OP(=O)(O)O)[C@@H](O)[C@H]1O` [ATP], the “modulation of basal BRET signal” value on mP2X4 is given as “modulated in a dose-dependent manner”. The EC50 on hP2X2 is 1630 nM; on P2X2 it was 888 ± 274 nM; at hP2X5 it was 480 nM; at hP2X4, 490 nM. For the same compound, the “change of basal BRET after exposure” value at TRPV1 ion channel was “only faintly and transiently increased”. For the same compound, the “change of BRET signal on stimulation” value at TRPV1 channel is reported as “does not respond”.
